# In ChEMBL document CHEMBL1777748 (Bioorg Med Chem Lett, 2011):
# Activity calls are given as the source filed them. No cut-off for these calls is given here.
# Legend:
# [1] = target: T1, Prostaglandin D2 receptor 2 (Homo sapiens, UniProt Q9Y5Y4); assay: Displacement of [3H]-PGD2 from CRTh2 receptor by scintillation proximity assay
# T1 sequence (Q9Y5Y4 whole entry): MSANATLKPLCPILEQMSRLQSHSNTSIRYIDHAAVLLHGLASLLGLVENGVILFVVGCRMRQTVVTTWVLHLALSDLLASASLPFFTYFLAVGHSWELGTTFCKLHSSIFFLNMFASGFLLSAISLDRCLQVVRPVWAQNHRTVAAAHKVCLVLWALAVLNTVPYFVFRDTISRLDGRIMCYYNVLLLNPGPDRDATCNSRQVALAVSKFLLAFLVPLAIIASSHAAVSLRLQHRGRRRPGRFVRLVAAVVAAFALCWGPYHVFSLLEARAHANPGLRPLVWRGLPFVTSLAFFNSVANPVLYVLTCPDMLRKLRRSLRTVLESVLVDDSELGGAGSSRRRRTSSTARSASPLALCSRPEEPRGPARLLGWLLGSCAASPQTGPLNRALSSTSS
# [2] = Intrinsic clearance in rat hepatocytes assessed per 1 x 10^6 cells
# [3] = Intrinsic clearance in human liver microsomes
# [4] = Aqueous solubility of the compound in buffer at pH 7.4; type: physicochemical
# [5] = target: T1, Prostaglandin D2 receptor 2; assay: Antagonist activity at human CRTh2 receptor expressed in CHO cells assessed as inhibition of PGD2-induced calcium flux in presence of 1% bovine serum albumin; type: functional, cell-based
# [6] = Half life in iv dosed rat; conditions: in vivo
# [7] = Oral bioavailability in rat; type: ADME, organism-based; conditions: in vivo
# [8] = target: T2, Cytochrome P450 1A2 (Homo sapiens, UniProt P05177); assay: Inhibition of CYP1A2; type: ADME
# T2 sequence (P05177 whole entry): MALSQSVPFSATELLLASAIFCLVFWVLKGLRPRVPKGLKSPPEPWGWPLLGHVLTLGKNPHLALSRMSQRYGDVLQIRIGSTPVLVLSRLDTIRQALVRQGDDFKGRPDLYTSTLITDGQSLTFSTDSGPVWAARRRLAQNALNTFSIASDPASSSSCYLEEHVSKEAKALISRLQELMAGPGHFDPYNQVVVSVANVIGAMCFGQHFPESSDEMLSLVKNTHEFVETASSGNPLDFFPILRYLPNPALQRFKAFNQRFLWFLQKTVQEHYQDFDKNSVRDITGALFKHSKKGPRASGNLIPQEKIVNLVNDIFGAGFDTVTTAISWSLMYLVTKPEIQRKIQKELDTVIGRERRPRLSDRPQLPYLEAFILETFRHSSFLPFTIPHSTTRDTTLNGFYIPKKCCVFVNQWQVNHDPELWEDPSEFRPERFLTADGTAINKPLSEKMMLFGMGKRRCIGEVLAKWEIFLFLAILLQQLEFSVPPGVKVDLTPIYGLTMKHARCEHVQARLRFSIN
# [9] = target: Cytochrome P450 3A4 (Homo sapiens, UniProt P08684); assay: Inhibition of CYP3A4; type: ADME
# Cytochrome P450 3A4, sequence (P08684 whole entry): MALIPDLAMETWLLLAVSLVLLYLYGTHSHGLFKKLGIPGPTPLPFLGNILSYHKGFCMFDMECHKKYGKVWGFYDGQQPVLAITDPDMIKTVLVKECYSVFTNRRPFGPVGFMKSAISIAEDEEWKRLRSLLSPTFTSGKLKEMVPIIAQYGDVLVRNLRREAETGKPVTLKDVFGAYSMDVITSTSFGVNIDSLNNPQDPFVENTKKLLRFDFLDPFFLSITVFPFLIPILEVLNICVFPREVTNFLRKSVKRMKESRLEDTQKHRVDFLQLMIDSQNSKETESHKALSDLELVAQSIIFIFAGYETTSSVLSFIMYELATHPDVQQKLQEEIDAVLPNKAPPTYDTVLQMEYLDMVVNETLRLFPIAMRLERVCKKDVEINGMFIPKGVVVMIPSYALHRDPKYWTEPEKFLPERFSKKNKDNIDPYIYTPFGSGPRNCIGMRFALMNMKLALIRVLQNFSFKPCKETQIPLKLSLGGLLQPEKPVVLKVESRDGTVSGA
# [10] = target: Cytochrome P450 2C9 (Homo sapiens, UniProt P11712); assay: Inhibition of CYP2C9; type: ADME
# Cytochrome P450 2C9, sequence (P11712 whole entry): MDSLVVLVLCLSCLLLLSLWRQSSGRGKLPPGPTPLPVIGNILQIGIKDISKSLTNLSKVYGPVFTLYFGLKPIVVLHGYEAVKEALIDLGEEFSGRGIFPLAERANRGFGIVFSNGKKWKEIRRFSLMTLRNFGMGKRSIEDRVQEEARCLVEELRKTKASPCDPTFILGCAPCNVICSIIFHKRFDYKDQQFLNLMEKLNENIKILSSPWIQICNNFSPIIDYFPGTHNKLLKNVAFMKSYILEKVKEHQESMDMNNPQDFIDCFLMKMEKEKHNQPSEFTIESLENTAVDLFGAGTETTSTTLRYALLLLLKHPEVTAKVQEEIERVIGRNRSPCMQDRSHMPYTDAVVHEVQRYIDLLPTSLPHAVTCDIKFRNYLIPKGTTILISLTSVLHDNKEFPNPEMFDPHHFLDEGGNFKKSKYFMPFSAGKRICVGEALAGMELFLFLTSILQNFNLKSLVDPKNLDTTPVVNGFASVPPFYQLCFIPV
# [11] = target: Cytochrome P450 2C19 (Homo sapiens, UniProt P33261); assay: Inhibition of CYP2C19; type: ADME
# Cytochrome P450 2C19, sequence (P33261 whole entry): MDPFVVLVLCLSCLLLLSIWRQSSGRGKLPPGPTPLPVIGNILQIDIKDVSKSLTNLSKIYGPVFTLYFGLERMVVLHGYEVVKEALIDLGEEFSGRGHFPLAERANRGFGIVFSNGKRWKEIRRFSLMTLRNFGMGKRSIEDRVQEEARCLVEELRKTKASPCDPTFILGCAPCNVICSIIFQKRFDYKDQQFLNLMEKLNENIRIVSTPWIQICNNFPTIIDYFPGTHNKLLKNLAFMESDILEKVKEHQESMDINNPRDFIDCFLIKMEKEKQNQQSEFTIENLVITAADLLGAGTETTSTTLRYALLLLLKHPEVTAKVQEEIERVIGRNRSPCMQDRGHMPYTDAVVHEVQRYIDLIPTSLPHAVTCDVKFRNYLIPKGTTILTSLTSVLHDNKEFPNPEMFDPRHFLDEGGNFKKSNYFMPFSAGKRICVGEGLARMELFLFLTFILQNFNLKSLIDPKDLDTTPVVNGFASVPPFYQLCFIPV
# [12] = target: Cytochrome P450 2D6 (Homo sapiens, UniProt P10635); assay: Inhibition of CYP2D6; type: ADME
# Cytochrome P450 2D6, sequence (P10635 whole entry): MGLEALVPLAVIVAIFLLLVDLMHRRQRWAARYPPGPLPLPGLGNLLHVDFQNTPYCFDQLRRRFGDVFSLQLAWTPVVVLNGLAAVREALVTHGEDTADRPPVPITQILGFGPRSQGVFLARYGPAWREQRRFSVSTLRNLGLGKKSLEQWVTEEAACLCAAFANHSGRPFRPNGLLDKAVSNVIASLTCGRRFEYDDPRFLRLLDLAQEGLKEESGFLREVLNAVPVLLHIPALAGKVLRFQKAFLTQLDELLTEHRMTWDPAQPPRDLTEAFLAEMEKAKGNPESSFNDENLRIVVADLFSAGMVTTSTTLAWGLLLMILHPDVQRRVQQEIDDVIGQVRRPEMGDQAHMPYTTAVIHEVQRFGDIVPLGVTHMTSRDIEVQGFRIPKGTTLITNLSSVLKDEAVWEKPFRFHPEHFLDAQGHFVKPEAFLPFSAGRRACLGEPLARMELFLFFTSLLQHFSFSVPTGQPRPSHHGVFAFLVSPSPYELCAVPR
# [13] = target: T3, Prostaglandin D2 receptor 2 (Mus musculus, UniProt Q9Z2J6); assay: Binding affinity to mouse CRTh2 receptor
# T3 sequence (Q9Z2J6 whole entry): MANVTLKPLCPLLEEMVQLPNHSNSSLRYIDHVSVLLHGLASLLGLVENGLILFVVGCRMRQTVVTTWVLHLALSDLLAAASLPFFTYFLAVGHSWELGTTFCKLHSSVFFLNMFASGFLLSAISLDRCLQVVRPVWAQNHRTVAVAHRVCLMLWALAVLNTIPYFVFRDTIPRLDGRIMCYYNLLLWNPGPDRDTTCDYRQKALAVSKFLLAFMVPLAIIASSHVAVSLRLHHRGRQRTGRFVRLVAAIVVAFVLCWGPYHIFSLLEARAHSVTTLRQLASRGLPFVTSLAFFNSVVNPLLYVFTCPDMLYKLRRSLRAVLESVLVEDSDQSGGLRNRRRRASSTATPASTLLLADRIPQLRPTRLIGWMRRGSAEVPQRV
# [14] = target: T4, Prostaglandin D2 receptor 2 (Rattus norvegicus, UniProt Q6XKD3); assay: Binding affinity to rat CRTh2 receptor
# T4 sequence (Q6XKD3 whole entry): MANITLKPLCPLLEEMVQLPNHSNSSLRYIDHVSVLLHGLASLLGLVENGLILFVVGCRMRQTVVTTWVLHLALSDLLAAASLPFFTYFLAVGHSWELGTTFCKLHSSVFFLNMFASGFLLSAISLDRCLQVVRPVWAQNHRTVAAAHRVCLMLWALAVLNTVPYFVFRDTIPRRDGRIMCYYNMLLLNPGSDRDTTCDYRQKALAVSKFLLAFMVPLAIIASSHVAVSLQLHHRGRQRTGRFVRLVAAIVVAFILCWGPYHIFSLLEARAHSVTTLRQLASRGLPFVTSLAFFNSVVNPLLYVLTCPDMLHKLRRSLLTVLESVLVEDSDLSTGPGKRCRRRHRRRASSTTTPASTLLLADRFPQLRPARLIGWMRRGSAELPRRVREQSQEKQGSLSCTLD
# [15] = target: T5, Chemoattractant receptor-homologous molecule expressed on Th2 cells (Cavia porcellus, UniProt Q56D28); assay: Binding affinity to guinea pig CRTh2 receptor
# T5 sequence (Q56D28 whole entry): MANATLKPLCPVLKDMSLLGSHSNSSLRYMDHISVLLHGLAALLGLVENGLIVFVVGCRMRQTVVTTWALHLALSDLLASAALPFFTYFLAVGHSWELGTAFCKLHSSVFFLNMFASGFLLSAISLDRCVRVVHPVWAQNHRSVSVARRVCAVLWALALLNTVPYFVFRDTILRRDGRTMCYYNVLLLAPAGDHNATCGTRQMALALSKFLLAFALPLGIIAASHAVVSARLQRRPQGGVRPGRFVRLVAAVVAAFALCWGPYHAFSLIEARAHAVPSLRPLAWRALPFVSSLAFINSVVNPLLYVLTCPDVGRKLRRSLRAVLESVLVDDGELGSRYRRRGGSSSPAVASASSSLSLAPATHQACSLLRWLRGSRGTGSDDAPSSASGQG
# [16] = Oral bioavailability in dog; type: ADME, organism-based, Canis lupus familiaris; conditions: in vivo
# [17] = species: Mus musculus; assay: Protection against 11 days tobacco smoke-induced mucosal damage in mouse lung assessed as inhibition of inflammatory cells accumulation; type: functional, organism-based
# [18] = Fraction unbound in human plasma; type: ADME, cell-free
# [19] = Fraction unbound in rat plasma; type: ADME, cell-free
# [20] = Fraction unbound in dog plasma; type: ADME, cell-free, Canis lupus familiaris
# [21] = Fraction unbound in cynomolgus monkey plasma; type: ADME, cell-free, Macaca fascicularis
compound,measurement,setting,value
O=C(O)COc1ccc(C(F)(F)F)cc1-c1ccccc1,IC50,[1],45 nM
same,hepatocyte CLint,[2],3 µL/min/1e6 cells
same,microsomal CLint,[3]; liver microsomes,< 3 µL/min/mg
same,solubility,[4],> 80 µM
N#Cc1cccc(-c2cc(Cl)ccc2OCC(=O)O)c1,IC50,[1],1.7 nM
same,hepatocyte CLint,[2],5 µL/min/1e6 cells
same,microsomal CLint,[3]; microsomes,< 3 µL/min/mg
same,IC50,[5],10 nM
same,half-life,[6],2.3 h
same,bioavailability,[7],96%
CCS(=O)(=O)c1ccc(-c2cc(C(F)(F)F)ccc2OCC(=O)O)c(C)c1,IC50,[1],0.9 nM
same,IC50,[5],29 nM
same,bioavailability,[7],42%
same,IC50,[8],> 50000 nM
same,IC50,[9],> 50000 nM
same,IC50,[10],> 50000 nM
same,IC50,[11],> 50000 nM
same,IC50,[12],> 50000 nM
same,IC50,[13],1 nM
same,IC50,[14],1.3 nM
same,IC50,[15],63 nM
same,bioavailability,[16],46%
same,Activity,[17],Active
same,fraction unbound,[18],0.046
same,fraction unbound,[19],0.056
same,fraction unbound,[20],0.03
same,fraction unbound,[21],0.026
